{
  "source": "paper PMC3894963",
  "about": "“Expression and Functional Characterization of Membrane-Integrated Mammalian Corticotropin Releasing Factor Receptors 1 and 2 in Escherichia coli” (PLoS ONE, 2014)",
  "key": {"mCRFR2β [1]": {"target": "T1, mCRFR2β (Mus musculus, UniProt Q60748)", "T1 construct": "mCRFR2β(Val25-C-term) - PhoA; made in house; host or cells: E. coli (membrane fraction)", "T1 sequence (Q60748 25-431 isoform Q60748-2)": "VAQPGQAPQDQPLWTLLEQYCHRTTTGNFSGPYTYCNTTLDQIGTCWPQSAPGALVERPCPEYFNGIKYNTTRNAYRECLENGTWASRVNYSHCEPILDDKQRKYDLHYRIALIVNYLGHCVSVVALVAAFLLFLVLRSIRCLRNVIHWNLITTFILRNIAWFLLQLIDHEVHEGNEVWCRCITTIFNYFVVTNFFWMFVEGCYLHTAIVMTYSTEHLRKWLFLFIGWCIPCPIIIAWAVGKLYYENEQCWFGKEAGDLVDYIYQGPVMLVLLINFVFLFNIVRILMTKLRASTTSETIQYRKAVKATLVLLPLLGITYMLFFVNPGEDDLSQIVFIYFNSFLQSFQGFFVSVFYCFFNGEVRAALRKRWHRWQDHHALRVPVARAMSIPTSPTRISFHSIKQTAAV", "experiment": "Saturation binding of labeled PD-sauvagine, mCRFR2β in E. coli membranes", "procedure": "(§1) The incubation was performed at room temp for 90-120 min, at which time the plates were aspirated and each well was washed with 2×100 μl assay buffer, dried and counted in a γ-counter. Each assay included at least triplicate wells for each concentration, and the assays were repeated at least twice (except where indicated). […] The saturation and competitive binding experiments are analyzed by non-linear regression with the GraphPad Prism program (www.graphpad.com) assuming binding to a single site. Specifically, for saturation binding experiments, binding is determined as a function of increasing concentrations of radioligand. The equation used is y = {(Bmax)^.[radioligand]}/{Kd+[radioligand]}, where y = the specific binding (i.e., total binding-non-specific binding). Competitive binding experiments use a constant concentration of radioligand together with increasing concentrations of competitor. […] Because [radioligand] is <Kd, the Ki = EC50. For multiple determinations, Log (EC50) values were averaged to calculate the values in Table 1. […] In Table 1, the inhibition constant (Ki) values are shown together with the standard error and ranges, calculated assuming log normal distribution."}, "hCRFR1α [2]": {"target": "T2, hCRFR1α (Homo sapiens, UniProt P34998)", "T2 construct": "The cDNAs encoding full-length mature forms of hCRFR1α and mCRFR2β were introduced into pET-26b plasmid; made in house; host or cells: E. coli (membrane fraction)", "T2 sequence (P34998 24-415)": "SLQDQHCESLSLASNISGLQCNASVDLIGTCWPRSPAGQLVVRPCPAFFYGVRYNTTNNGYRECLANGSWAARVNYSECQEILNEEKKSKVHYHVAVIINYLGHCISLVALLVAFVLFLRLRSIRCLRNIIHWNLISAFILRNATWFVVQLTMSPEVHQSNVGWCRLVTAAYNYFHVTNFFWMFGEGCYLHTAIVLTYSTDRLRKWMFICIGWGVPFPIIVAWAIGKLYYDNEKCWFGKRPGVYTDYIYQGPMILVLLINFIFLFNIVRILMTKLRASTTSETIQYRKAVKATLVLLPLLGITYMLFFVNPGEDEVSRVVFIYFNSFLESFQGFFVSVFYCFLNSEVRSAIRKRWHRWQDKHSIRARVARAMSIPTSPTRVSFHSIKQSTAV", "experiment": "Saturation binding of labeled PD-sauvagine, hCRFR1α in E. coli membranes", "procedure": "as §1"}, "mCRFR2β [3]": {"target": "T1, mCRFR2β", "experiment": "Binding of labeled sauvagine, mCRFR2β in E. coli", "conditions": "mCRFR2β expressed in E. coli, [^125I-Tyr^0,Glu^1,Nle^17]-sauvagine", "procedure": "(§2) The incubation was performed at room temp for 90–120 min, at which time the plates were aspirated and each well was washed with 2×100 µl assay buffer, dried and counted in a γ-counter. Each assay included at least triplicate wells for each concentration, and the assays were repeated at least twice (except where indicated)."}, "hCRFR1α [4]": {"target": "T2, hCRFR1α", "experiment": "Binding of labeled sauvagine, hCRFR1α in E. coli", "conditions": "hCRFR1α expressed in E. coli, [^125I-Tyr^0,Glu^1,Nle^17]-sauvagine", "procedure": "as §2"}, "CRFR1 / CRFR2": {"tested_on": "CRFR1 / CRFR2", "conditions": "introduction; cited from earlier work", "from_the_text": "In most vertebrates there are two highly conserved tissue-specifically expressed CRFRs, designated type 1 [15] and type 2 [16], encoded by different genes and approximately 70% identical to each other at the amino acid level. CRFR1 is relatively more abundant in the nervous system, including the pituitary, while CRFR2 is particularly expressed in the heart, skeletal muscle, and gastrointestinal tract. […] The main type 1 isoform in human, ra ..."}, "mCRFR2β [5]": {"target": "T1, mCRFR2β", "experiment": "Competitive displacement of labeled astressin, mCRFR2β in E. coli membranes", "format": "binding", "conditions": "for Displacement of bound labeled astressin: mCRFR2β, E. coli membranes (Figure 11B)", "procedure": "as §1"}, "hCRFR1α [6]": {"target": "T2, hCRFR1α", "experiment": "Competitive displacement of labeled astressin, hCRFR1α in E. coli membranes", "format": "binding", "conditions": "E. coli membranes (Figure 11A)", "procedure": "as §1"}, "ECD-1s of the CRFRs": {"tested_on": "ECD-1s of the CRFRs", "conditions": "cited from earlier work", "from_the_text": "Further, the CRFRs' coupling to G-proteins in mammalian cells is important for the high affinity binding of agonists, such as sauvagine and CRF, ..."}, "hCRFR1α [7]": {"target": "T2, hCRFR1α", "experiment": "Competitive displacement of labeled PD-sauvagine, hCRFR1α in E. coli membranes", "format": "binding", "conditions": "E. coli membranes (Figure 14)", "procedure": "Each assay included at least triplicate wells for each concentration, and the assays were repeated at least twice (except where indicated).\nThe saturation and competitive binding experiments are analyzed by non-linear regression with the GraphPad Prism program (www.graphpad.com) assuming binding to a single site. Specifically, for saturation binding experiments, binding is determined as a function of increasing concentrations of radioligand. The equation used is y = {(Bmax)^.[radioligand]}/{Kd+[radioligand]}, where y = the specific binding (i.e., total binding-non-specific binding). Competitive binding experiments use a constant concentration of radioligand together with increasing concentrations of competitor. […] Because [radioligand] is <Kd, the Ki = EC50. For multiple determinations, Log (EC50) values were averaged to calculate the values in Table 1. […] In Table 1, the inhibition constant (Ki) values are shown together with the standard error and ranges, calculated assuming log normal distribution."}, "CRFR1": {"tested_on": "CRFR1", "design": "method as in PMID 9415408", "conditions": "CRFR1 in mammalian cells; cited from earlier work"}, "mCRFR2β [8]": {"target": "T1, mCRFR2β", "experiment": "Binding of labeled Ucn1, mCRFR2β in E. coli", "conditions": "data not shown"}, "hCRFR1α [9]": {"target": "T2, hCRFR1α", "experiment": "Binding of labeled Ucn1, hCRFR1α in E. coli", "conditions": "data not shown"}, "[10]": {"conditions": "labeled PD-sauvagine versus labeled astressin, printed with ref [55]"}, "[11]": {"conditions": "nanomolar concentrations, Kd not determined (Figure S3)"}, "[12]": {"conditions": "listed as labeled agonist sauvagine"}},
  "note": "Entries after “also recorded” stand apart in the source; their conditions may differ. Ends that are not written are not given here.",
  "data": [
    {"compound": "[^125I-Tyr^0,Glu^1]PD-sauvagine [labeled PD-sauvagine]", "values": [
      {"measurement": "Binding of labeled PD-sauvagine", "setting": "mCRFR2β [1]", "value": "do bind the other labeled agonist, PD-sauvagine"},
      {"measurement": "Number of sites detected", "setting": "mCRFR2β [1]; [10]", "value": "less than that detected by labeled astressin"},
      {"measurement": "Saturation of binding", "setting": "mCRFR2β [1]; [11]", "value": "at nanomolar concentrations the binding did not saturate"},
      {"measurement": "Binding of labeled PD-sauvagine", "setting": "hCRFR1α [2]", "value": "do bind the other labeled agonist, PD-sauvagine"},
      {"measurement": "Number of sites detected", "setting": "hCRFR1α [2]; [10]", "value": "less than that detected by labeled astressin"},
      {"measurement": "Saturation of binding", "setting": "hCRFR1α [2]; [11]", "value": "at nanomolar concentrations the binding did not saturate"}
    ]},
    {"compound": "[^125I-Tyr^0,Glu^1,Nle^17]-sauvagine [labeled sauvagine]", "values": [
      {"measurement": "Binding of labeled sauvagine", "setting": "mCRFR2β [3]", "value": "fail to bind labeled sauvagine"},
      {"measurement": "Binding of labeled sauvagine", "setting": "mCRFR2β [3]; [12]", "value": "do not bind the labeled agonist sauvagine"},
      {"measurement": "Binding of labeled sauvagine", "setting": "hCRFR1α [4]", "value": "fail to bind labeled sauvagine"},
      {"measurement": "Binding of labeled sauvagine", "setting": "hCRFR1α [4]; [12]", "value": "do not bind the labeled agonist sauvagine"}
    ]},
    {"compound": "r/hCRF: CRF is a 41-amino acid (aa) peptide synthesized in the hypothalamus", "values": [
      {"measurement": "Relative affinity for CRFR1 and CRFR2", "setting": "CRFR1 / CRFR2", "value": "tenfold higher affinity for CRFR1 than for CRFR2"}
    ]},
    {"compound": "CC[C@H](C)[C@H](NC(=O)[C@H](CO)NC(=O)[C@H](CC(C)C)NC(=O)[C@@H]1CCCN1C(=O)[C@@H]1CCCN1C(=O)[C@H](CC(=O)O)NC(=O)[C@@H](N)CC(=O)O)C(=O)N[C@@H](CC(=O)O)C(=O)N[C@@H](CC(C)C)C(=O)N[C@H](C(=O)N[C@@H](Cc1ccccc1)C(=O)N[C@@H](Cc1c[nH]cn1)C(=O)N[C@@H](CC(C)C)C(=O)N[C@@H](CC(C)C)C(=O)N[C@@H](CCCNC(=N)N)C(=O)N[C@H](C(=O)N[C@@H](CC(C)C)C(=O)N[C@@H](CC(C)C)C(=O)N[C@@H](CCC(=O)O)C(=O)N[C@@H](CC(C)C)C(=O)N[C@@H](C)C(=O)N[C@@H](CCCNC(=N)N)C(=O)N[C@H](C(=O)N[C@@H](CCC(N)=O)C(=O)N[C@@H](CO)C(=O)N[C@@H](CCC(N)=O)C(=O)N[C@@H](CCCNC(=N)N)C(=O)N[C@@H](CCC(=O)O)C(=O)N[C@@H](CCCNC(=N)N)C(=O)N[C@@H](C)C(=O)N[C@@H](CCC(=O)O)C(=O)N[C@@H](CCC(N)=O)C(=O)N[C@@H](CC(N)=O)C(=O)N[C@@H](CCCNC(=N)N)C(=O)N[C@H](C(=O)N[C@H](C(=O)N[C@@H](Cc1ccccc1)C(=O)N[C@@H](CC(=O)O)C(=O)N[C@@H](CO)C(=O)N[C@H](C(N)=O)C(C)C)[C@@H](C)CC)[C@@H](C)CC)[C@@H](C)O)[C@@H](C)O)[C@@H](C)O", "note": "[rUcn1]", "values": [
      {"measurement": "Ki", "setting": "mCRFR2β [5]; read-out: Inhibitory binding constant (Ki)", "value": 11.5, "unit": "nM"}
    ]},
    {"compound": "mUcn3: CRFR2-selective ligand, mouse (FTLSLDVPTNIMNILFNIDKAKNLRAKAAANAQLMAQI; ends and bridges not checked; UniProt Q924A4 123-160, looked up)", "values": [
      {"measurement": "Displacement of bound labeled astressin", "setting": "mCRFR2β [5]", "value": "does not compete for binding to mCRFR2β"},
      {"measurement": "Relative affinity for CRFR1 and CRFR2", "setting": "CRFR1 / CRFR2", "value": "selective for CRFR2"}
    ]},
    {"compound": "sauvagine", "values": [
      {"measurement": "Displacement of bound labeled astressin", "setting": "mCRFR2β [5]", "value": "does not displace labeled astressin bound to either receptor"},
      {"measurement": "Displacement of bound labeled astressin", "setting": "hCRFR1α [6]", "value": "does not displace labeled astressin bound to either receptor"},
      {"measurement": "Binding to ECD-1s", "setting": "ECD-1s of the CRFRs", "value": "does not bind to the isolated ECD-1s"}
    ]},
    {"compound": "CCCCN(CC)c1nc(C)nc2c1c(C)c(C)n2-c1c(C)cc(C)cc1C", "note": "[antalarmin]", "values": [
      {"measurement": "Displacement of bound labeled PD-sauvagine", "setting": "hCRFR1α [7]", "value": "displaces labeled PD-sauvagine bound to hCRFR1α (Figure 14) in a dose dependent manner; also recorded: competitively displaces labeled PD-sauvagine bound to a small percentage of the hCRFR1α expressed in E. coli membranes"},
      {"measurement": "Binding site", "setting": "CRFR1", "value": "binds to a site defined by residues in transmembrane domains 3 and 5 of CRFR1"}
    ]},
    {"compound": "labeled Ucn1: labeled Ucn1, binding data not shown (DNPSLSIDLTFHLLRTLLELARTQSQRERAEQNRIIFDSV; ends and bridges not checked; also: labeled (label not given here); UniProt P55089 83-122, looked up)", "values": [
      {"measurement": "Binding of labeled Ucn1", "setting": "mCRFR2β [8]", "value": "observed binding of labeled Ucn1 to the receptors"},
      {"measurement": "Binding of labeled Ucn1", "setting": "hCRFR1α [9]", "value": "observed binding of labeled Ucn1 to the receptors"}
    ]}
  ]
}
